Experimental data as given in patent US10668049B2, “Methods of treating cognitive decline with transforming growth factor beta inhibitors” (The Regents of the University of California, priority 2008, dated 2020).

Columns and labels:
TGF-βRII = molecular target: T1, TGF-βRII (Rattus norvegicus, UniProt P38438); experiment: Albumin and TGF-βRII co-immunoprecipitation in cortical lysates; assay type: binding; conditions: cortical lysate pre-incubated with albumin
T1 construct: brains were isolated from adult Wistar rats, dissected in cold saline solution and lysed in RIPA buffer; from tissue; host or cells: adult Wistar rat brain cortex lysate (RIPA buffer)
T1 sequence (P38438 24-567): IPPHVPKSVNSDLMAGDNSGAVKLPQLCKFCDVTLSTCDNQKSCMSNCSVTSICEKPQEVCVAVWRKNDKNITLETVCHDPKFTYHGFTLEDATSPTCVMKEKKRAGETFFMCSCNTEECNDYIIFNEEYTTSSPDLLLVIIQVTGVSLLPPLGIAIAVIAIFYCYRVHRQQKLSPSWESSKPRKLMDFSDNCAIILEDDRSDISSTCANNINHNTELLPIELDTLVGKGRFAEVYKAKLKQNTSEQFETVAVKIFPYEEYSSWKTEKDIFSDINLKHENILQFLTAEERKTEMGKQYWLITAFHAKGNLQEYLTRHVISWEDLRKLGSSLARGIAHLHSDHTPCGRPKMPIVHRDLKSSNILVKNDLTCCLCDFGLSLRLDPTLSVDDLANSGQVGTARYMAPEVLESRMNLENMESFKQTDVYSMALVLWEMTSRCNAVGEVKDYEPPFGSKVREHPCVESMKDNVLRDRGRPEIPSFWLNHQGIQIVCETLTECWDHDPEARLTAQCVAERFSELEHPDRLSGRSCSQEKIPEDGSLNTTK
Description: To prepare cortical lysates, brains were isolated from adult Wistar rats, dissected in cold saline solution and lysed in RIPA buffer. BSA (3 μg) was added to lysates to approximately match the amount of precipitating anti-albumin antibodies. Immunoprecipitation was performed using the Catch and Release® v2.0 Reversible Immunoprecipitation System (Upstate, Charlottesville, Va.) with the following modifications to the standard protocol: the starting amount of protein was increased to 1,500 μg and the incubation time with precipitating antibodies was increased to 90 minutes. […]
The immunoprecipitated samples were separated with SDS-PAGE and transferred onto a nitrocellulose membrane. […] TGF-βRII was detected with a rabbit anti-TGF-βRII antibody (Upstate) and an AP-conjugated donkey anti-rabbit IgG secondary antibody (Jackson ImmunoResearch Laboratories, West Grove, Pa.). […]
To determine whether albumin binds to TGF-β receptors, co-immunoprecipitation using antibodies against albumin or TGF-βRII was performed on cortical lysate samples treated with albumin. An expected hand corresponding to TGF-βRII was detected in samples immunoprecipitated with the TGF-βRII antibody. More importantly, this band was also detected in samples pre-incubated with albumin when immunoprecipitated with the albumin antibody and probed for TGF-βRII (FIG. 2a). […]

[1] = tested on: albumin-induced epileptogenesis; experiment: EEG recording from awake rats during albumin-induced epileptogenesis; assay type: in vivo, rat
[2] = during albumin-induced epileptogenesis

interaction with TGF-βRII (co-immunoprecipitation) (TGF-βRII): direct interaction
Substance: albumin: bovine serum albumin, used to induce epileptogenesis
EEG complexity (fractal dimension) [1, 2]: decrease
EEG signal harmony [1, 2]: increase
number of seizure like events (SLEs) ([1]; one week following treatment): sharp increase
